From the supplement of paper PMC10307832

Legend:
Experiment in all cases: relative viability (nuclei count vs DMSO), 5 days (fraction); higher = more cells survive
NCI-H2347 = test system: NCI-H2347
In short: (§1)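 Five library-drug doses in √10 steps were combined with a fixed anchor-drug dose, or a single drug was given alone, by pin tool to lung cancer cell lines in 1536-well plates the day after seeding. Nuclei were stained and counted after 5 days. Relative viability is the nuclei count in treated wells over that in vehicle wells, taken as the median of duplicate plates.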

NCI-H1915 = test system: NCI-H1915
In short: as §1

NCI-H1993 = test system: NCI-H1993
In short: as §1

NCI-H1651 = test system: NCI-H1651
In short: as §1

COR-L23 = test system: COR-L23
In short: as §1

PC-14 = test system: PC-14
In short: as §1

EPLC-272H = test system: EPLC-272H
In short: as §1

LU99A = test system: LU99A
In short: as §1

NCI-H2023 = test system: NCI-H2023
In short: as §1

NCI-H838 = test system: NCI-H838
In short: as §1

NCI-H1355 = test system: NCI-H1355
In short: as §1

HCC-78 = test system: HCC-78
In short: as §1

HCC-15 = test system: HCC-15
In short: as §1

ABC-1 = test system: ABC-1
In short: as §1

UMC-11 = test system: UMC-11
In short: as §1

HARA = test system: HARA
In short: as §1

NCI-H2085 = test system: NCI-H2085
In short: as §1

NCI-H650 = test system: NCI-H650
In short: as §1

NCI-H2126 = test system: NCI-H2126
In short: as §1

LC-2-ad = test system: LC-2-ad
In short: as §1

SW 1573 = test system: SW 1573
In short: as §1

NCI-H358 = test system: NCI-H358
In short: as §1

NCI-H2342 = test system: NCI-H2342
In short: as §1

## Oc1nc(-c2ccc(C(F)(F)F)cc2)nc2c1CSCC2 [XAV939] + COc1cccc2cc(-c3nc([C@H]4CC[C@H](C(=O)O)CC4)n4ncnc(N)c34)[nH]c12 [OSI-027] (partner 0.5 µM)
NCI-H2347; first compound 0.08 µM
  relative viability: 0.571
NCI-H2347; first compound 2.53 µM
  relative viability: 0.217
NCI-H1915; first compound 0.08 µM
  relative viability: 0.707
NCI-H1915; first compound 0.253 µM
  relative viability: 0.321
NCI-H1915; first compound 0.8 µM
  relative viability: 0.597
NCI-H1915; first compound 2.53 µM
  relative viability: 0.589
NCI-H1993; first compound 0.08 µM
  relative viability: 0.563
NCI-H1993; first compound 0.253 µM
  relative viability: 0.493
NCI-H1993; first compound 0.8 µM
  relative viability: 0.596
NCI-H1993; first compound 2.53 µM
  relative viability: 0.461
NCI-H1651; first compound 0.08 µM
  relative viability: 0.925
NCI-H1651; first compound 0.253 µM
  relative viability: 0.711
NCI-H1651; first compound 0.8 µM
  relative viability: 0.838
NCI-H1651; first compound 2.53 µM
  relative viability: 0.69
COR-L23; first compound 0.08 µM
  relative viability: 0.824
COR-L23; first compound 0.253 µM
  relative viability: 0.765
COR-L23; first compound 0.8 µM
  relative viability: 0.77
COR-L23; first compound 2.53 µM
  relative viability: 0.618
PC-14; first compound 0.08 µM
  relative viability: 1.09
PC-14; first compound 0.253 µM
  relative viability: 0.772
PC-14; first compound 0.8 µM
  relative viability: 0.725
PC-14; first compound 2.53 µM
  relative viability: 0.639
EPLC-272H; first compound 0.08 µM
  relative viability: 0.312
EPLC-272H; first compound 0.253 µM
  relative viability: 0.22
EPLC-272H; first compound 0.8 µM
  relative viability: 0.261
EPLC-272H; first compound 2.53 µM
  relative viability: 0.314
LU99A; first compound 0.08 µM
  relative viability: 0.303
LU99A; first compound 0.253 µM
  relative viability: 0.348
LU99A; first compound 0.8 µM
  relative viability: 0.329
LU99A; first compound 2.53 µM
  relative viability: 0.268
NCI-H2023; first compound 0.08 µM
  relative viability: 0.368
NCI-H2023; first compound 0.253 µM
  relative viability: 0.288
NCI-H2023; first compound 0.8 µM
  relative viability: 0.321
NCI-H2023; first compound 2.53 µM
  relative viability: 0.251
NCI-H838; first compound 0.08 µM
  relative viability: 0.375
NCI-H838; first compound 0.253 µM
  relative viability: 0.371
NCI-H838; first compound 0.8 µM
  relative viability: 0.365
NCI-H838; first compound 2.53 µM
  relative viability: 0.301
NCI-H1355; first compound 0.08 µM
  relative viability: 0.396
NCI-H1355; first compound 0.253 µM
  relative viability: 0.353
NCI-H1355; first compound 0.8 µM
  relative viability: 0.368
NCI-H1355; first compound 2.53 µM
  relative viability: 0.274
HCC-78; first compound 0.08 µM
  relative viability: 0.341
HCC-78; first compound 0.253 µM
  relative viability: 0.361
HCC-78; first compound 0.8 µM
  relative viability: 0.356
HCC-78; first compound 2.53 µM
  relative viability: 0.297
HCC-15; first compound 0.08 µM
  relative viability: 0.797
HCC-15; first compound 0.253 µM
  relative viability: 0.619
HCC-15; first compound 0.8 µM
  relative viability: 0.738
HCC-15; first compound 2.53 µM
  relative viability: 0.655
ABC-1; first compound 0.08 µM
  relative viability: 0.44
ABC-1; first compound 0.253 µM
  relative viability: 0.532
ABC-1; first compound 0.8 µM
  relative viability: 0.374
ABC-1; first compound 2.53 µM
  relative viability: 0.28
UMC-11; first compound 0.08 µM
  relative viability: 0.456
UMC-11; first compound 0.253 µM
  relative viability: 0.478
UMC-11; first compound 0.8 µM
  relative viability: 0.538
UMC-11; first compound 2.53 µM
  relative viability: 0.44
HARA; first compound 0.08 µM
  relative viability: 0.436
HARA; first compound 0.253 µM
  relative viability: 0.424
HARA; first compound 0.8 µM
  relative viability: 0.3
HARA; first compound 2.53 µM
  relative viability: 0.467
NCI-H2085; first compound 0.08 µM
  relative viability: 0.638
NCI-H2085; first compound 0.253 µM
  relative viability: 0.686
NCI-H2085; first compound 0.8 µM
  relative viability: 0.958
NCI-H2085; first compound 2.53 µM
  relative viability: 0.625
NCI-H650; first compound 0.08 µM
  relative viability: 0.52
NCI-H650; first compound 0.253 µM
  relative viability: 0.565
NCI-H650; first compound 0.8 µM
  relative viability: 0.493
NCI-H650; first compound 2.53 µM
  relative viability: 0.37
NCI-H2126; first compound 0.08 µM
  relative viability: 0.651
NCI-H2126; first compound 0.253 µM
  relative viability: 0.649
NCI-H2126; first compound 0.8 µM
  relative viability: 0.682
NCI-H2126; first compound 2.53 µM
  relative viability: 0.61
LC-2-ad; first compound 0.08 µM
  relative viability: 0.907
LC-2-ad; first compound 0.253 µM
  relative viability: 0.815
LC-2-ad; first compound 0.8 µM
  relative viability: 0.889
LC-2-ad; first compound 2.53 µM
  relative viability: 0.864
SW 1573; first compound 0.08 µM
  relative viability: 0.602
SW 1573; first compound 0.253 µM
  relative viability: 0.556
SW 1573; first compound 0.8 µM
  relative viability: 0.542
SW 1573; first compound 2.53 µM
  relative viability: 0.494
NCI-H358; first compound 0.08 µM
  relative viability: 0.793
NCI-H358; first compound 0.253 µM
  relative viability: 0.624
NCI-H358; first compound 0.8 µM
  relative viability: 0.785
NCI-H358; first compound 2.53 µM
  relative viability: 0.605
NCI-H2342; first compound 0.08 µM
  relative viability: 0.596
NCI-H2342; first compound 0.253 µM
  relative viability: 0.481
NCI-H2342; first compound 0.8 µM
  relative viability: 0.531
NCI-H2342; first compound 2.53 µM
  relative viability: 0.464
